Assay results: PubChem BioAssay (NCI)
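These data come from cells grown in 96-well plates and exposed to compound for 48 hours at five concentrations. GI50 marks 50% less growth. TGI: total growth inhibition.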 Where a SMILES comes first, the peptide text is derived from it. [ ]: non-standard residue; d: D form. The star is where a group is joined. ξ: configuration not given here. ξF = NC(Cc1ccccc1)C(=O)O; Cbz = O=C(OCc1ccccc1)*; Aib = CC(C)(N)C(=O)O

Experiments:
Assay in all cases: DTP human tumour cell line panel, 48 h
SF-268 CNS = system: SF-268 CNS
SNB-19 CNS = system: SNB-19 CNS
HCC-2998 colon = system: HCC-2998 colon
NCI-H23 lung = system: NCI-H23 lung
UACC-257 melanoma = system: UACC-257 melanoma
OVCAR-5 ovarian = system: OVCAR-5 ovarian
UACC-62 melanoma = system: UACC-62 melanoma
MALME-3M melanoma = system: MALME-3M melanoma
CAKI-1 renal = system: CAKI-1 renal
MDA-MB-231 breast = system: MDA-MB-231 breast

Row | Structure (SMILES) | TGI (SF-268 CNS) | TGI (SNB-19 CNS) | TGI (HCC-2998 colon) | TGI (NCI-H23 lung) | TGI (UACC-257 melanoma) | TGI (OVCAR-5 ovarian) | TGI (UACC-62 melanoma) | TGI (MALME-3M melanoma) | TGI (CAKI-1 renal) | TGI (MDA-MB-231 breast) | GI50 (SF-268 CNS) | GI50 (SNB-19 CNS) | GI50 (HCC-2998 colon) | GI50 (NCI-H23 lung) | GI50 (UACC-257 melanoma) | GI50 (OVCAR-5 ovarian) | GI50 (MALME-3M melanoma) | GI50 (CAKI-1 renal)
1 | CCOC/N=C(/N)NC#N | > 100 µM | > 100 µM | > 100 µM | > 100 µM | > 100 µM | > 100 µM | > 100 µM | > 100 µM | > 100 µM | – | – | – | – | – | – | – | – | –
2 | CSc1nc(NC2CCCC2)c2cc[nH]c2n1 | > 100 µM | > 100 µM | > 100 µM | > 100 µM | > 100 µM | – | > 100 µM | > 100 µM | > 100 µM | > 100 µM | – | – | – | – | – | – | – | –
3 | COc1cccc(N2C(=O)C3c4[nH]c5ccccc5c4C4c5ccccc5CCC4C3C2=O)c1 (stereo not drawn) | > 10 µM | > 10 µM | > 10 µM | > 10 µM | – | > 10 µM | > 10 µM | > 9.13 µM | > 10 µM | > 10 µM | – | – | – | – | – | – | – | –
4 | N=C(N)SCCON1C(=O)c2ccccc2C1=O | > 100 µM | > 100 µM | – | > 100 µM | > 100 µM | > 100 µM | > 100 µM | > 100 µM | > 100 µM | > 100 µM | – | – | – | – | – | – | – | –
5 | O=C(c1ccc(Cl)cc1)c1ccc(OCC(=O)N2CCN(c3ccccc3)CC2)cc1 | > 100 µM | > 100 µM | > 100 µM | > 100 µM | > 100 µM | > 100 µM | > 100 µM | > 100 µM | > 100 µM | – | – | – | – | – | – | – | – | –
6 | O=C(CSc1nc2ccccc2[nH]1)Nc1ccc(-c2nc3ccccc3s2)c(Cl)c1 | 4.37 µM | 65.8 µM | 9.4 µM | 4.27 µM | > 100 µM | 13.6 µM | – | 8.92 µM | > 100 µM | – | 1.88 µM | 5.44 µM | 2.77 µM | 1.88 µM | 4.08 µM | 3.63 µM | 2.59 µM | 4.17 µM
7 | CCOC(=O)/C(=C\NCC(O)c1ccccc1)c1nc2ccccc2[nH]1 (stereo not drawn) | 40.5 µM | > 100 µM | 42.2 µM | 59.6 µM | 42.5 µM | 83.8 µM | 34.8 µM | 52 µM | > 100 µM | – | – | – | – | – | – | – | – | –
8 | Cc1cnoc1NC1=CC(=O)C(=O)c2ccccc21 | 94.3 µM | 73.5 µM | – | 32.7 µM | 49.3 µM | 55.9 µM | 29.9 µM | 9.81 µM | > 100 µM | > 100 µM | – | – | – | – | – | – | – | –
9 | Cc1ccc2c(=O)cc(-c3csc4ccccc34)[nH]c2n1 | > 53.2 µM | 15.3 µM | – | 2.51 µM | – | 6.47 µM | > 76.8 µM | 54.6 µM | 0.228 µM | 0.0836 µM | – | – | – | – | – | – | – | –
10 | Cn1c(=O)c2c(nc(NCCCCl)n2CC(=O)O)n(C)c1=O | > 100 µM | > 100 µM | > 100 µM | > 100 µM | > 100 µM | > 100 µM | > 100 µM | – | > 100 µM | > 100 µM | – | – | – | – | – | – | – | –
11 | Cc1c(C)c(C)c(-n2[nH]c(=O)n(C)c2=O)c(C)c1C | > 100 µM | > 100 µM | – | > 100 µM | > 100 µM | > 100 µM | > 100 µM | – | > 100 µM | > 100 µM | – | – | – | – | – | – | – | –
12 | CCCCOC(=O)CNC(=O)OCCCCC#CC#CCCCCOC(=O)NCC(=O)OCCCC | > 100 µM | > 100 µM | > 100 µM | > 100 µM | > 100 µM | > 100 µM | > 100 µM | > 100 µM | > 100 µM | – | – | – | – | – | – | – | – | –
13 | CCOC(C[Se]CC(OCC)OCC)OCC | – | > 100 µM | > 100 µM | > 100 µM | > 100 µM | > 100 µM | > 100 µM | > 100 µM | > 100 µM | > 100 µM | – | – | – | – | – | – | – | –
14 | CC(C)(C)OC(=O)n1cc(C2CNC(=O)C23CCC(=O)N3Cc2ccccc2)c2ccccc21 (stereo not drawn) | > 100 µM | > 100 µM | – | 57.1 µM | 65.2 µM | 40.8 µM | 38.7 µM | 42.8 µM | > 100 µM | 39.9 µM | – | – | – | – | – | – | – | –
15 | O=[N+]([O-])c1cccc(-c2csc(N=Nc3c(O)[nH]c4ccccc34)n2)c1 | 38.4 µM | 82.2 µM | 32 µM | > 100 µM | 41.3 µM | > 100 µM | > 100 µM | – | 47 µM | 39.5 µM | – | – | – | – | – | – | – | –
16 | COC1=CC(=O)c2ccccc2C1(CCC=C(C)C)C1=NC(C)(C)CO1 (stereo not drawn) | > 100 µM | > 100 µM | – | > 100 µM | > 100 µM | – | > 100 µM | > 100 µM | > 100 µM | – | – | – | – | – | – | – | – | –
17 | COc1cccc2cc(C)c(C(=O)c3ccccc3)nc12 | > 100 µM | > 100 µM | > 100 µM | > 100 µM | > 100 µM | > 100 µM | > 100 µM | > 100 µM | > 100 µM | – | – | – | – | – | – | – | – | –
18 | CC(C)(NC(=O)OCc1ccccc1)C(=O)NC(Cc1ccccc1)C(=O)O (stereo not drawn) (Cbz-[Aib]-[ξF]-OH) | – | > 100 µM | – | > 100 µM | > 100 µM | > 100 µM | > 100 µM | > 100 µM | > 100 µM | > 100 µM | – | – | – | – | – | – | – | –
19 | NCCC(N)C(=O)O (stereo not drawn) | > 100 µM | > 100 µM | – | > 100 µM | > 100 µM | > 100 µM | > 100 µM | > 100 µM | > 100 µM | > 100 µM | – | – | – | – | – | – | – | –
20 | Cc1ccc(S(=O)(=O)N/C(=C\C=C\c2ccccc2)C(=O)C(C)(C)C)cc1 | > 100 µM | > 100 µM | > 100 µM | > 100 µM | > 100 µM | > 100 µM | – | > 100 µM | > 100 µM | > 100 µM | – | – | – | – | – | – | – | –
21 | CCCCCc1cc(OC(=O)c2c(O)cc(OC)cc2CCCCC)cc(O)c1C(=O)O | 30 µM | 25.5 µM | 29 µM | 27.1 µM | – | 34.1 µM | 28.9 µM | 26.1 µM | 34.5 µM | – | – | – | – | – | – | – | – | –
22 | CC(C)CCCC(C)[C@H]1CCC2[C@@H]3CCC4Cc5nc6c(nc5C[C@]4(C)C3CC[C@@]21C)CC1CC[C@@H]2C(C[C@@H](O)[C@@]3(C)C2C[C@@H]2OC4(CCC(C)CO4)C(C)[C@@H]23)[C@@]1(C)C6 (stereo partly drawn) | > 100 µM | > 100 µM | > 100 µM | > 100 µM | > 100 µM | > 100 µM | > 100 µM | – | – | > 100 µM | – | – | – | – | – | – | – | –
